PubChem BioAssay AID268 (DTP/NCI, 2004)
Values joined by “and” are separate entries in the source; they are usually repeats but may differ in a detail not shown here. Identical values can stand only once.

Tested on: CD2F1 mice, P1798 lymphosarcoma sc, tumor weight T/C
Assay: NCI In Vivo Anticancer Drug Screen. Data for tumor model P1798 Lymphosarcoma (subcutaneous) in CD2F1 (CDF1) mice
Conditions: endpoint: mean tumor weight, higher = larger tumour
Protocol: The antitumor activity of compounds was measured in mice bearing transplantable tumors. Survival or tumor size were measured and the results are expressed as the measurement made in the treated group (T) divided by the measurement made in the vehicle treated control group (C). The tumor model used in this assay is P1798 Lymphosarcoma (subcutaneous) in CD2F1 (CDF1) mice

[1] = dose: 18.0 mg/kg/injection, schedule: Q01DX010 (ip), vehicle: saline
[2] = dose: 27.0 mg/kg/injection, schedule: Q01DX010 (ip), vehicle: saline
[3] = dose: 40.0 mg/kg/injection, schedule: Q01DX010 (ip), vehicle: saline
[4] = dose: 100.0 mg/kg/injection, schedule: Q01DX010 (ip), vehicle: saline
[5] = dose: 200.0 mg/kg/injection, schedule: Q01DX010 (ip), vehicle: saline
[6] = dose: 0.5 mg/kg/injection, schedule: Q01DX010 (ip), vehicle: saline

SMILES: CC(=O)OCC(=O)[C@@]1(O)CC[C@H]2[C@@H]3CCC4=CC(=O)[C@H](C)C[C@]4(C)[C@H]3[C@@H](O)C[C@@]21C
- T/C (dose: 0.78 mg/kg/injection, schedule: Q01DX Z (sc), vehicle: steriod suspending solution): 111 % of control
- T/C (dose: 1.56 mg/kg/injection, schedule: Q01DX Z (sc), vehicle: steriod suspending solution): 101 % of control
- T/C (dose: 3.13 mg/kg/injection, schedule: Q01DX Z (sc), vehicle: steriod suspending solution): 108 % of control
- T/C (dose: 6.25 mg/kg/injection, schedule: Q01DX Z (sc), vehicle: steriod suspending solution): 101 % of control and 88 % of control
- T/C (dose: 12.5 mg/kg/injection, schedule: Q01DX005 (sc), vehicle: steriod suspending solution): 61 % of control
- T/C (dose: 12.5 mg/kg/injection, schedule: Q01DX010 (sc), vehicle: steriod suspending solution): 33 % of control and 50 % of control
- T/C (dose: 12.5 mg/kg/injection, schedule: Q01DX Z (sc), vehicle: steriod suspending solution): 96 % of control
- T/C (dose: 25.0 mg/kg/injection, schedule: Q01DX005 (sc), vehicle: steriod suspending solution): 27 % of control
- T/C (dose: 25.0 mg/kg/injection, schedule: Q01DX Z (sc), vehicle: steriod suspending solution): 73 % of control
- T/C (dose: 25.0 mg/kg/injection, schedule: Q02DX010 (sc), vehicle: steriod suspending solution): 96 % of control
- T/C (dose: 25.0 mg/kg/injection, schedule: Q03DX004 (sc), vehicle: steriod suspending solution): 65 % of control
- T/C (dose: 50.0 mg/kg/injection, schedule: Q01DX005 (sc), vehicle: steriod suspending solution): 9 % of control
- T/C (dose: 50.0 mg/kg/injection, schedule: Q01DX Z (sc), vehicle: steriod suspending solution): 76 % of control
- T/C (dose: 50.0 mg/kg/injection, schedule: Q02DX010 (sc), vehicle: steriod suspending solution): 100 % of control
- T/C (dose: 50.0 mg/kg/injection, schedule: Q03DX004 (sc), vehicle: steriod suspending solution): 17 % of control
- T/C (dose: 100.0 mg/kg/injection, schedule: Q01DX005 (sc), vehicle: steriod suspending solution): 4 % of control
- T/C (dose: 100.0 mg/kg/injection, schedule: Q02DX010 (sc), vehicle: steriod suspending solution): 108 % of control
- T/C (dose: 100.0 mg/kg/injection, schedule: Q03DX004 (sc), vehicle: steriod suspending solution): 2 % of control

SMILES: CC(=O)c1ccccc1C
- T/C [1]: 44 % of control
- T/C [2]: 42 % of control
- T/C [3]: 42 % of control

SMILES: O=C(NCCCCC(NC(=O)OCc1ccccc1)C(=O)NCCCCCCNCCCCCCNC(=O)C(CCCCNC(=O)OCc1ccccc1)NC(=O)OCc1ccccc1)OCc1ccccc1 (configuration not stated)
- T/C (dose: 12.5 mg/kg/injection, schedule: Q01DX010 (ip), vehicle: saline): 78 % of control
- T/C (dose: 25.0 mg/kg/injection, schedule: Q01DX010 (ip), vehicle: saline): 66 % of control
- T/C [4]: 44 % of control and 61 % of control
- T/C [5]: 70 % of control

SMILES: CN(C)[C@@H]1C(=O)C(C(N)=O)=C(O)[C@@]2(O)C(=O)C3=C(O)c4c(O)cccc4C[C@H]3C[C@@H]12
- T/C (dose: 15.0 mg/kg/injection, schedule: Q01DX010 (ip), vehicle: saline): 124 % of control
- T/C (dose: 30.0 mg/kg/injection, schedule: Q01DX010 (ip), vehicle: saline): 106 % of control

SMILES: CC(C)(O)/C=C/C(=O)[C@](C)(O)[C@H]1[C@H](O)C[C@@]2(C)[C@@H]3CC=C4[C@@H](C[C@H](O)C(=O)C4(C)C)[C@]3(C)C(=O)C[C@]12C
- T/C (dose: 0.2 mg/kg/injection, schedule: Q01DX009 (ip), vehicle: saline): 91 % of control
- T/C (dose: 0.4 mg/kg/injection, schedule: Q01DX009 (ip), vehicle: saline): 81 % of control
- T/C (dose: 0.8 mg/kg/injection, schedule: Q01DX009 (ip), vehicle: saline): 95 % of control

SMILES: Nc1nc(F)nc2c1ncn2C1OC(CO)C(O)C1O (configuration not stated)
- T/C [6]: 76 % of control
- T/C (dose: 1.0 mg/kg/injection, schedule: Q01DX010 (ip), vehicle: saline): 94 % of control
- T/C (dose: 2.0 mg/kg/injection, schedule: Q01DX010 (ip), vehicle: saline): 73 % of control
- T/C (dose: 3.0 mg/kg/injection, schedule: Q01DX010 (ip), vehicle: saline): 62 % of control
- T/C (dose: 4.0 mg/kg/injection, schedule: Q01DX010 (ip), vehicle: saline): 35 % of control

SMILES: CC(=O)NCCCCCCNC(C)=O
- T/C (dose: 50.0 mg/kg/injection, schedule: Q01DX010 (ip), vehicle: saline): 112 % of control
- T/C [4]: 95 % of control
- T/C [5]: 119 % of control
- T/C (dose: 400.0 mg/kg/injection, schedule: Q01DX010 (ip), vehicle: saline): 86 % of control

SMILES: C1CN1c1nc(N2CC2)nc(N2CC2)n1
- T/C (dose: 0.06 mg/kg/injection, schedule: Q01DX010 (ip), vehicle: saline): 114 % of control
- T/C [6]: 29 % of control and 37 % of control

SMILES: Nc1ccn(C2OC(CO)C(O)C2O)c(=O)n1 (configuration not stated)
- T/C (dose: 10.0 mg/kg/injection, schedule: Q01DX010 (ip), vehicle: saline): 12 % of control
- T/C [1]: 31 % of control
- T/C (dose: 20.0 mg/kg/injection, schedule: Q01DX010 (ip), vehicle: saline): 10 % of control
- T/C [2]: 12 % of control
- T/C [3]: 4 % of control and 6 % of control
- T/C (dose: 60.0 mg/kg/injection, schedule: Q01DX010 (ip), vehicle: saline): 1 % of control
